# Reference: patent US20240124456A1, “AZA-ERGOLINE DERIVATIVE AND PREPARATION METHOD THEREFOR AND APPLICATION THEREOF” (SHANGHAITECH UNIVERSITY, priority 2021, published 2024)
# Biological target: 5-HT2A receptor (Homo sapiens (Human), UniProt P28223)
# Test: Radioligand competition binding, affinity for 5-HT2A receptor ([3H]-ketanserin)
# Procedure: The affinity of the compounds of the present invention for the 5-HT2A receptors was determined by the method of radioligand competition experiment. In the first step, a cell membrane component containing specific 5-HT2A receptor was prepared. A 10 cm dish was used for transfection with 10 ng of the 5-HT2A receptor and 40 μL of PEI. […] A vacuum pump was used to suck off the culture medium, 3 mL of lysis buffer was added to each well, and the cells were placed in a 4° C. freezer for 10 minutes. After the cells were detached, the cells were transferred to a 15 mL centrifuge tube and centrifuged at 1500 rpm for 5 minutes at 4° C., and the supernatant was discarded. The cell pellet was transferred to a tissue homogenizer, and 3 mL of lysis buffer was added and fully ground until the cells were broken. Then, cell suspension was equally divided into several EP tubes, centrifuged at 4° C. and 12000 rpm for 5 min, and the supernatant was discarded. The precipitate was the cell membrane component containing the 5-HT2A receptor. […] First, a standard binding buffer was added to the cell membrane component containing the 5-HT2A receptor, and the cell membrane was disrupted and resuspended with an electric tissue homogenizer. 30 μL of membrane protein suspension was added to each well of a 96-well plate. Then, 30 μL of different drugs were added to the 96-well plate from left to right to ensure that the final drug concentrations were 10^−5 M, 10^−6 M, 10^−7 M, 10^−8 M, 10^−9 M and 0 M, with two replicates per treatment. Next, 30 μL [^3H]-ketanserin was added to each well of the 96-well plate. The plate was incubated for 2 hours at room temperature in the dark. Detection. The machine reading value reflected the amount of [^3H]-ketanserin bound on the membrane, and after further data processing, the affinity Ki value of different compounds for 5-HT2A receptor was obtained.
# 5-HT2A receptor, sequence (P28223 whole entry): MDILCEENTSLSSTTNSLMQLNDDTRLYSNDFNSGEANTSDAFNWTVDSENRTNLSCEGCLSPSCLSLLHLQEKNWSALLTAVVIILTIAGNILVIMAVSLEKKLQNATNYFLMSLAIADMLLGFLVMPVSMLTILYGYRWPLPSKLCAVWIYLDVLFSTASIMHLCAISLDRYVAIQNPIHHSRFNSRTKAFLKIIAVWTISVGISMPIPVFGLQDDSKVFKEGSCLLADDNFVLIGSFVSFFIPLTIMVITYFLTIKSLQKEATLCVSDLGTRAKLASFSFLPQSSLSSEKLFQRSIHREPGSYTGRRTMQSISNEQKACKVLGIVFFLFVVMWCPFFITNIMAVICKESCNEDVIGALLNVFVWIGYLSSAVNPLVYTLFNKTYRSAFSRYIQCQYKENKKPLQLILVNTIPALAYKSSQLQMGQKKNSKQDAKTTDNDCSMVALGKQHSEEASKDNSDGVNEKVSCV
smiles,measurement,value
"O=c1ccc2ccc(OCCCCN3CCN4c5cccc6[nH]cc(c56)CC4C3)cc2[nH]1 (stereo not shown) [Compound I-2, 7-(4(4,6,6a,7,9,10-hexahydro-8H-pyrazino[1,2-a]pyrrolo[4,3,2-de]quinolin-8-yl)butoxy)quinolin-2(1H)-one]",affinity for 5-HT2A receptor (in words),very weak affinity
